Here are results for 43 molecules from patent US9957271B2, “Substituted bicyclic aza-heterocycles and analogues as sirtuin modulators” (GlaxoSmithKline, LLC, priority 2012, dated 2018).

Like-named read-outs stand apart in the source and are kept apart here. Bounds are passed on as bounds.

The assay concerns the target T1, SIRT1 (Homo sapiens, UniProt Q96EB6).
T1 sequence (Q96EB6 1-747): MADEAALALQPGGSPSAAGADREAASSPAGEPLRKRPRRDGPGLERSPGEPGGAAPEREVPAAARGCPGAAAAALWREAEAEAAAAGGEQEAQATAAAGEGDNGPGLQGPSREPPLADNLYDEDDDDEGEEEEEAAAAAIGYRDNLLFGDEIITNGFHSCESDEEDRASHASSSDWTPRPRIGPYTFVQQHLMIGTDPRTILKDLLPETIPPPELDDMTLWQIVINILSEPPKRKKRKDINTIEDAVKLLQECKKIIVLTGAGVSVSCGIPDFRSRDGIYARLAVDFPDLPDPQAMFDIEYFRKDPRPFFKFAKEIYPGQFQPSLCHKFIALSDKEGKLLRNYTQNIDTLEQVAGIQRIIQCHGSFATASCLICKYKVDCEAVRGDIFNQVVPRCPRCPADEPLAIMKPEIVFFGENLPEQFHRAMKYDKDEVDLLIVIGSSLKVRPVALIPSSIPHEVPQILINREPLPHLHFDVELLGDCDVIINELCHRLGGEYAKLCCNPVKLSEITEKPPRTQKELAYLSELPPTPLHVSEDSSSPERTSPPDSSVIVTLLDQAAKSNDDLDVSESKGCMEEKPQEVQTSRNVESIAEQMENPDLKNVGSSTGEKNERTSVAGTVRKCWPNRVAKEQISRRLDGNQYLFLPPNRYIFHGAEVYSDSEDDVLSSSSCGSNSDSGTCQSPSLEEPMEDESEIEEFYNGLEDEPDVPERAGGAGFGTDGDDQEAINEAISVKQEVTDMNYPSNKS
The assay can be described thus: TAMRA based mass spectrometry assay of SIRT1 activity. To be noted: for Emax: read-out: TAMRA % Fold Act. It is filed as biochemical. In short, it runs like this: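 Deacetylation of a biotinylated, TAMRA-tagged p53-based peptide (0.5 μM) by 10 nM His-tagged SIRT1 with 120 μM βNAD+, 25 °C for 25 min, pH 8 Tris-acetate buffer, across a compound concentration range. Quenched by formic acid and read by mass spec as product peptide or OAADPR; activity relative to DMSO reactions, nicotinamide defining maximal inhibition.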

The mark [1] stands for this setting: TAMRA assay, concentration giving 150% activation of SIRT1.
Setting [2] is: TAMRA assay, percent maximum fold activation.
Setting [3] is: concentration of test compound giving 150% activation of SIRT1, TAMRA peptide substrate.
[4] abbreviates: percent maximum fold activation of SIRT1, TAMRA peptide substrate.
Where [5] appears, read: TAMRA peptide substrate, concentration giving 150% activation of SIRT1.
Setting [6] is: TAMRA peptide substrate, percent maximum fold activation.

As to `Cc1nccc(NC(=O)c2cnn3ccc(-c4ccccc4C(F)(F)F)nc23)c1C` [Compound 620], the “TAMRA EC1.5 (μM)” value under setting [1] was “B (EC1.5 1-25 μM)”. The Emax under setting [2] is below 350%.

Take `CS(=O)(=O)c1cccc(-c2ccc3ncc(C(=O)Nc4ccccn4)n3n2)c1` [Compound 12]: the “TAMRA EC1.5 (μM)” value under setting [3] is given as “C (EC1.5>25 μM)”. In addition, the Emax under setting [4] is below 350%.

`O=C(Nc1cccc(N2CCOCC2)n1)c1cnc2ccc(-c3cncc(C(F)F)c3)nn12` [Compound 60]: the “TAMRA EC1.5 (μM)” value under setting [3] was “A (EC1.5<1 μM)”. In addition, under setting [4], the Emax was below 350%.

With `O=C(Nc1ccccn1)c1cnn2ccc(-c3ccccc3C(F)(F)F)nc12` [Compound 265, N-(pyridin-2-yl)-5-(2-(trifluoromethyl)phenyl)pyrazolo[1,5-a]pyrimidine-3-carboxamide], the “TAMRA EC1.5 (μM)” value under setting [1] was “A (EC1.5<1 μM)”. For the same molecule, the Emax under setting [2] is at least 350%.

With `CN(C)[C@H]1CCN(c2ccc3ncc(C(=O)Nc4cccc(N5CCOCC5)n4)n3n2)C1` [Compound 510], the “TAMRA EC1.5” value under setting [5] is on record as “B (EC1.5 1-25 μM)”. The Emax under setting [6] is below 350%.

Regarding `Cc1nc(NC(=O)c2c(C)nn3ccc(-c4ccccc4C(F)(F)F)nc23)sc1C` [Compound 651], under setting [1], the “TAMRA EC1.5 (μM)” value was “A (EC1.5<1 μM)”. Moreover, the Emax under setting [2] was at least 350%.

As for `Cc1cc(-c2ccccc2C(F)(F)F)nn2c(C(=O)Nc3cc(N4CCCC4)ncn3)cnc12` [Compound 646], the “TAMRA EC1.5 (μM)” value under setting [1] is “A (EC1.5<1 μM)”. In addition, under setting [2], the Emax was at least 350%.

Consider `Cc1cc(C)c(NC(=O)c2cnn3ccc(-c4ccccc4C(F)(F)F)nc23)cn1` [Compound 687], for which the “TAMRA EC1.5 (μM)” value under setting [1] is “B (EC1.5 1-25 μM)”. Further, the Emax under setting [2] was below 350%.

With `Cc1ccc(NC(=O)c2cnn3ccc(-c4ccccc4OC(F)(F)F)nc23)c(C)n1` [Compound 625], under setting [1], the “TAMRA EC1.5 (μM)” value was “B (EC1.5 1-25 μM)”. Besides, the Emax under setting [2] is below 350%.

In the case of `Cc1cnc(C(=O)Nc2cnc3ccc(-c4ccccc4C(F)(F)F)nn23)s1` [Compound 123], the “TAMRA EC1.5 (μM)” value under setting [3] is given as “A (EC1.5<1 μM)”. Moreover, the Emax under setting [4] was at least 350%.

With `Cc1cc(C)nc(C(=O)Nc2cnc3c(C)c(C)c(-c4ccccc4Cl)nn23)n1` [Compound 388], under setting [1], the “TAMRA EC1.5 (μM)” value was “A (EC1.5<1 μM)”. Under setting [2], the Emax was at least 350%.

As for `Cc1cc(C)nc(NC(=O)c2cnc3ccc(-c4ccccc4F)nn23)c1` [Compound 243], under setting [1], the “TAMRA EC1.5 (μM)” value is “A (EC1.5<1 μM)”. Moreover, the Emax under setting [2] was at least 350%.

Consider `Cc1nc(C(=O)Nc2cnc3ccc(-c4ccccc4C(F)(F)F)nn23)c(C)s1` [Compound 220], for which, under setting [1], the “TAMRA EC1.5 (μM)” value is reported as “A (EC1.5<1 μM)”. Besides, under setting [2], the Emax is at least 350%.

Regarding `Cc1cc(NC(=O)c2cnc3c(C)c(C)c(-c4ccccc4C(F)(F)F)nn23)cc(C)n1` [Compound 361], the “TAMRA EC1.5 (μM)” value under setting [1] is “A (EC1.5<1 μM)”. Moreover, the Emax under setting [2] was at least 350%.

`Cc1nn2ccc(-c3ccccc3C(F)(F)F)nc2c1NC(=O)c1ccncc1` [Compound 569]: the “TAMRA EC1.5” value under setting [5] is “C (EC1.5>25 μM)”. Also, the Emax under setting [6] is below 350%.

As to `Cc1nc(NC(=O)c2cnc3ccc(-c4ccccc4C(F)(F)F)nn23)sc1C` [Compound 237], the “TAMRA EC1.5 (μM)” value under setting [1] is “A (EC1.5<1 μM)”. In addition, the Emax under setting [2] was at least 350%.

Consider `O=C(Nc1cnc2ccc(-c3ccccc3C(F)(F)F)nn12)c1cccc(-n2cnnc2)n1` [Compound 438], for which, under setting [5], the “TAMRA EC1.5” value is “A (EC1.5<1 μM)”. In addition, the Emax under setting [6] is at least 350%.

Regarding `Cc1c(-c2ccccc2C(F)(F)F)nn2c(NC(=O)c3cccc(OCC(O)CO)n3)cnc2c1C` (centres unmarked) [Compound 422, 6-(2,3-dihydroxypropoxy)-N-(7,8-dimethyl-6-(2-(trifluoromethyl)phenyl)imidazo[1,2-b]pyridazin-3-yl)picolinamide], the “TAMRA EC1.5” value under setting [5] is recorded as “A (EC1.5<1 μM)”. In addition, the Emax under setting [6] was at least 350%.

Consider `O=C(Nc1cnn2ccc(-c3ccccc3OC(F)(F)F)nc12)c1cccnc1` [Compound 582], for which the “TAMRA EC1.5” value under setting [5] was “B (EC1.5 1-25 μM)”. Also, under setting [6], the Emax was below 350%.

Regarding `Cc1ncccc1-c1ccc2ncc(C(=O)Nc3cccc(N4CCOCC4)n3)n2n1` [Compound 58], the “TAMRA EC1.5 (μM)” value under setting [3] was “B (EC1.5 1-25 μM)”. Moreover, under setting [4], the Emax was below 350%.

On to `Cc1cc(C(=O)Nc2cnn3ccc(-c4ccccc4OC(F)(F)F)nc23)nc(C)n1` [Compound 727], for which the “TAMRA EC1.5 (μM)” value under setting [1] was “A (EC1.5<1 μM)”. Under setting [2], the Emax was at least 350%.

Take `O=C(Nc1cnn2ccc(-c3ccccc3OC(F)(F)F)nc12)c1ccccn1` [Compound 581]: under setting [5], the “TAMRA EC1.5” value is on record as “A (EC1.5<1 μM)”. Further, the Emax under setting [6] is at least 350%.

As for `Cc1cc(C)nc(NC(=O)c2c(C)nn3ccc(-c4ccccc4C(F)(F)F)nc23)c1` [Compound 685], the “TAMRA EC1.5 (μM)” value under setting [1] is reported as “A (EC1.5<1 μM)”. Also, under setting [2], the Emax was at least 350%.

On to `O=C(Nc1ccccn1)c1cnc2ccc(-c3ccc(F)c(F)c3F)nn12` [Compound 129], for which, under setting [3], the “TAMRA EC1.5 (μM)” value was “C (EC1.5>25 μM)”. Besides, the Emax under setting [4] was below 350%.

As for `O=C(Nc1cccc(N2CC3(COC3)C2)n1)c1cnc2ccc(-c3ccccc3C(F)(F)F)nn12` [Compound 537], under setting [5], the “TAMRA EC1.5” value is “A (EC1.5<1 μM)”. Further, under setting [6], the Emax is at least 350%.

As for `Cc1nc(NC(=O)c2cnn3ccc(-c4ccccc4OC(F)(F)F)nc23)sc1C` [Compound 614], the “TAMRA EC1.5 (μM)” value under setting [1] is reported as “A (EC1.5<1 μM)”. Besides, the Emax under setting [2] was at least 350%.

As to `Cc1cccc(NC(=O)c2cnn3ccc(-c4ccccc4OC(F)(F)F)nc23)n1` [Compound 617], the “TAMRA EC1.5 (μM)” value under setting [1] was “A (EC1.5<1 μM)”. The Emax under setting [2] was at least 350%.

As for `Cc1cnc(C(=O)Nc2cnc3ccc(-c4ccccc4C#N)nn23)s1` [Compound 336], the “TAMRA EC1.5 (μM)” value under setting [1] is recorded as “B (EC1.5 1-25 μM)”. Moreover, the Emax under setting [2] was at least 350%.

Turning to `Cc1ccncc1NC(=O)c1c(C)nn2ccc(-c3ccccc3C(F)(F)F)nc12` [Compound 649], under setting [1], the “TAMRA EC1.5 (μM)” value was “A (EC1.5<1 μM)”. Besides, the Emax under setting [2] is below 350%.

On to `O=C(Nc1ccncn1)c1ncn2ccc(-c3ccccc3C(F)(F)F)nc12` [Compound 452], for which the “TAMRA EC1.5” value under setting [5] is on record as “A (EC1.5<1 μM)”. Also, the Emax under setting [6] is at least 350%.

For `Cc1cc(-c2ccccc2C(F)(F)F)nn2c(NC(=O)c3cccc(N4CCC4)n3)cnc12` [Compound 426], under setting [5], the “TAMRA EC1.5” value was “A (EC1.5<1 μM)”. Also, the Emax under setting [6] was at least 350%.

Turning to `COc1nccc(NC(=O)c2c(C)nc3ccc(-c4ccccc4C(F)(F)F)nn23)n1` [Compound 476], the “TAMRA EC1.5” value under setting [5] was “A (EC1.5<1 μM)”. The Emax under setting [6] was at least 350%.

In the case of `CC(C)c1nccc(C(=O)Nc2cnc3ccc(-c4ccccc4C(F)(F)F)nn23)n1` [Compound 274], the “TAMRA EC1.5 (μM)” value under setting [1] was “A (EC1.5<1 μM)”. Also, the Emax under setting [2] is at least 350%.

For `Cc1cc(NC(=O)c2c(O)nc3ccc(-c4ccccc4C(F)(F)F)nn23)ccn1` [Compound 366], the “TAMRA EC1.5 (μM)” value under setting [1] is listed as “B (EC1.5 1-25 μM)”. For the same molecule, the Emax under setting [2] is below 350%.

Turning to `Cc1ccc(NC(=O)c2cnc3ccc(-c4ccccc4OC(F)(F)F)nn23)nn1` [Compound 396], the “TAMRA EC1.5 (μM)” value under setting [1] was “A (EC1.5<1 μM)”. Besides, the Emax under setting [2] is at least 350%.

As to `Cc1cc(C)nc(C(=O)Nc2cnn3ccc(-c4ccccc4C(F)(F)F)nc23)n1` [Compound 801], under setting [1], the “TAMRA EC1.5 (μM)” value is given as “A (EC1.5<1 μM)”. For the same molecule, the Emax under setting [2] was at least 350%.

In the case of `Cc1ccnc(NC(=O)c2cnc3ccc(-c4ccccc4OC[C@H](O)CO)nn23)c1` [Compound 811], the “TAMRA EC1.5 (μM)” value under setting [1] is recorded as “A (EC1.5<1 μM)”. Besides, the Emax under setting [2] was at least 350%.

As to `Cc1cccc(NC(=O)c2c(C)nc3c(C)cc(-c4ccccc4C(F)(F)F)nn23)n1` [Compound 458], under setting [5], the “TAMRA EC1.5” value is reported as “A (EC1.5<1 μM)”. Also, the Emax under setting [6] was at least 350%.

In the case of `Cc1nc2ccc(-c3ccccc3Cl)nn2c1NC(=O)c1nccs1` [Compound 353], the “TAMRA EC1.5 (μM)” value under setting [1] is listed as “B (EC1.5 1-25 μM)”. In addition, the Emax under setting [2] was below 350%.

Consider `O=C(Nc1cnccn1)c1cnc2ccc(-c3cccc(Cl)c3F)nn12` [Compound 157], for which the “TAMRA EC1.5 (μM)” value under setting [3] is recorded as “B (EC1.5 1-25 μM)”. In addition, under setting [4], the Emax was below 350%.

As to `O=C(Nc1cccnn1)c1cnc2ccc(-c3ccccc3C(F)(F)F)nn12` [Compound 79], the “TAMRA EC1.5 (μM)” value under setting [3] is “B (EC1.5 1-25 μM)”. Under setting [4], the Emax is at least 350%.

For the molecule `O=C(Nc1cnccn1)c1cnc2ccc(-c3ccccc3F)nn12` [Compound 139], the “TAMRA EC1.5 (μM)” value under setting [3] is given as “B (EC1.5 1-25 μM)”. The Emax under setting [4] was below 350%.

Take `O=C(Nc1cnn2ccc(-c3ccccc3OC(F)(F)F)nc12)c1cnc(O)cn1` [Compound 735]: the “TAMRA EC1.5 (μM)” value under setting [1] is reported as “B (EC1.5 1-25 μM)”. Under setting [2], the Emax was at least 350%.
